# Tests used:
# [1] = Encapsulation efficiency of LNP preparations (Ribogreen assay; Qubit, unlysed and lysed LNPs); format: physicochemical; settings: LNP preparation with the ionizable lipid, ABE mRNA:sgRNA 1:1, except 7-1, 7-2, 7-6, 7-10 (unlysed and lysed LNPs, Qubit)
# Method: (§1) Lipid nanoparticle components were dissolved in 100% ethanol at specified lipid component molar ratios. mRNA encoding an adenine base editor and a chemically-modified sgRNA was dissolved at a mass ratio of 1:1 in 50 mM citrate, pH 4.0, resulting in a concentration of NA cargo of approximately 0.1 mg/mL.
# (§2) LNP preparations were formulated with molar ratios of 47.5% Ionizable Lipid: 40% Cholesterol: 2.5% PEG2000-DMG: 10% DSPC total lipid to NA molar ratio of 6 to 12.
# (§3) LNP preparations were formed by microfluidic mixing of the lipid and NA solutions using Precision Nanosystems NanoAssemblr Ignite series Instruments, according to the manufacturer's protocol.
# With the exception of LNPs comprising ionizable lipids 7-1, 7-2, 7-6, and 7-10, RNA concentration and encapsulation efficiency were determined by Ribogreen assay (BioTek Synergy LX plate reader). For LNPs comprising ionizable lipids 7-1, 7-2, 7-6, and 7-10, RNA concentration was determined by Qubit microRNA kit (for siRNA) or HS RNA kit (for mRNA) per manufacturer's instructions, and encapsulation efficiency was determined by measuring unlysed and lysed LNPs.
# [2] = LNP hydrodynamic diameter and polydispersity index by dynamic light scattering (DLS); format: physicochemical; settings: for Diameter (nm): hydrodynamic diameter of the LNP preparation with the ionizable lipid; for PDI: polydispersity index of the LNP preparation with the ionizable lipid
# Method: (§4) A 3:1 ratio of aqueous to organic solvent was maintained during mixing using differential flow rates. After mixing, LNP preparations were collected and diluted in TBS (approximately 7:1 v/v), and further buffer exchange was conducted using dialysis in TBS at 4° C. for 8 to 24 hours against a 20 kDa filter. After this initial dialysis, each individual LNP preparation was characterized via dynamic light scattering (DLS) to measure size and polydispersity. pKa of a subpopulation of LNP preparations was measured via TNS assay.
# DLS-LNP preparation hydrodynamic diameter and polydispersity index (PDI) was measured using high throughput dynamic light scattering (DLS) (DynaPro plate reader II, Wyatt). LNP preparations were diluted 1×PBS to an appropriate concentration and analyzed.
# [3] = tested on: ALAS1 target site; assay: Base editing in liver by LNP-delivered ABE mRNA and sgRNA, targeted deep sequencing; format: in vivo; settings: LNP with the ionizable lipid, ABE mRNA + sgRNA targeting ALAS1 1:1; tail vein injection, Balb/c mice; 0.05 mg/kg; tissues four to six days post-dose
# Method: as §1, §2, §3, §4
# Male Balb/C mice aged approximately 8-12 weeks were used in the experiments described herein. […]
# Age-matched mice were also used to administer vehicle (1×TBS) via tail vein injection as a control. Four to six days post-dose, tissues including liver, spleen, and bone marrow were collected. Base editing was determined by performing targeted deep sequencing analysis at the ALAS1 target site using extracted genomic DNA. Genomic DNA was isolated and fragmented and adapter-ligated using the Nextera DNA Flex Library Prep Kit (Illumina) using the 96-well plate Nextera indexing primers (Illumina), according to the manufacturer's instructions. Library size and concentration was confirmed by Fragment Analyzer (Agilent) and analyzed for whole genome sequencing using an Illumina HiSeq.
SMILES,Encapsulation Efficiency (%) [1] [%],Diameter (nm) [2] [nm],PDI [2],% Editing in Liver (0.05 mpk) [3] [%]
"CC/C=C\CCCCOC(CCC(=O)OCC(COC(=O)CCCCCC(=O)OCCC(CCCCCC)CCCCCC)COC(=O)CCC(CCCCCC)OC(=O)NCCN1CCCC1)OCCCC/C=C\CC (centres unmarked) [Compound 7-14, 1-(3-((4,4-bis(((Z)-oct-5-en-1-yl)oxy)butanoyl)oxy)-2-(((4-(((2-(pyrrolidin-1-yl)ethyl)carbamoyl)oxy)decanoyl)oxy)methyl)propyl) 7-(3-hexylnonyl) heptanedioate]",97.6,59.40,0.09,0.1
"CCCCCCCCOC(CCC(=O)OCC(COC(=O)CCCCCC(=O)OCCC(CCCCC)CCCCC)COC(=O)CCC(CCCCCC)OC(=O)NCCN1CCCC1)OCCCCCCCC (centres unmarked) [Compound 7-15, 1-(3-((4,4-bis(octyloxy)butanoyl)oxy)-2-(((4-(((2-(pyrrolidin-1-yl)ethyl)carbamoyl)oxy)decanoyl)oxy)methyl)propyl) 7-(3-pentyloctyl) heptanedioate]",97.9,58.45,0.08,6.8
"CC/C=C\CCCCOC(CCC(=O)OCC(COC(=O)CCCCCCOC(=O)C(CCCC)CCCCCC)COC(=O)CCC(CCCCCC)OC(=O)NCCN1CCCCC1)OCCCC/C=C\CC (centres unmarked) [Compound 7-44, 3-((4,4-bis(((Z)-oct-5-en-1-yl)oxy)butanoyl)oxy)-2-(((7-((2-butyloctanoyl)oxy)heptanoyl)oxy)methyl)propyl 4-(((2-(piperidin-1-yl)ethyl)carbamoyl)oxy)decanoate]",89.2,68.8,0.08,0.1
"CC/C=C\CCCCOC(CCC(=O)OCC(COC(=O)CCCCCCOC(=O)C(CCCC)CCCCCC)COC(=O)CCC(CCCCCC)OC(=O)NCCN(CC)CC)OCCCC/C=C\CC (centres unmarked) [Compound 7-41, 3-((4,4-bis(((Z)-oct-5-en-1-yl)oxy)butanoyl)oxy)-2-(((7-((2-butyloctanoyl)oxy)heptanoyl)oxy)methyl)propyl 4-(((2-(diethylamino)ethyl)carbamoyl)oxy)decanoate]",95.9,59.05,0.06,4.5
"CC/C=C\CCCCOC(CCC(=O)OCC(COC(=O)CCCCCC(=O)OC(CCCCCCC)CCCCCCC)COC(=O)CCC(CCCCCC)OC(=O)NCCN1CCCC1)OCCCC/C=C\CC (centres unmarked) [Compound 7-36, 1-(3-((4,4-bis(((Z)-oct-5-en-1-yl)oxy)butanoyl)oxy)-2-(((4-(((2-(pyrrolidin-1-yl)ethyl)carbamoyl)oxy)decanoyl)oxy)methyl)propyl) 7-(pentadecan-8-yl) heptanedioate]",98.2,53.80,0.04,1.5
"CC/C=C\CCCCOC(CCC(=O)OCC(COC(=O)CCCCCC(=O)OC(CCCCCCC)CCCCCCC)COC(=O)CCC(CCCCC)OC(=O)NCCN1CCCC1)OCCCC/C=C\CC (centres unmarked) [Compound 7-35, 1-(3-((4,4-bis(((Z)-oct-5-en-1-yl)oxy)butanoyl)oxy)-2-(((4-(((2-(pyrrolidin-1-yl)ethyl)carbamoyl)oxy)nonanoyl)oxy)methyl)propyl) 7-(pentadecan-8-yl) heptanedioate]",96.2,64.25,0.12,3.1
"CC/C=C\CCCCOC(CCC(=O)OCC(COC(=O)CCCCCC(=O)OCCC(CCCC)CCCC)COC(=O)CCC(CCCCCC)OC(=O)NCCN1CCCC1)OCCCC/C=C\CC (centres unmarked) [Compound 7-12, 1-(3-((4,4-bis(((Z)-oct-5-en-1-yl)oxy)butanoyl)oxy)-2-(((4-(((2-(pyrrolidin-1-yl)ethyl)carbamoyl)oxy)decanoyl)oxy)methyl)propyl) 7-(3-butylheptyl) heptanedioate]",96.4,69.26,0.11,1.7
"CC/C=C\CCCCOC(CCC(=O)OCC(COC(=O)CCCCCCC(=O)OCCC(CCCC)CCCC)COC(=O)CCC(CCCCCC)OC(=O)NCCN1CCCC1)OCCCC/C=C\CC (centres unmarked) [Compound 7-18, 1-(3-((4,4-bis(((Z)-oct-5-en-1-yl)oxy)butanoyl)oxy)-2-(((4-(((2-(pyrrolidin-1-yl)ethyl)carbamoyl)oxy)decanoyl)oxy)methyl)propyl) 8-(3-butylheptyl) octanedioate]",96.1,55.60,0.08,3.3
"CC/C=C\CCCCOC(CCC(=O)OCC(COC(=O)CCCCCC(=O)OCCC(CCCCC)CCCCC)COC(=O)CCC(CCC)OC(=O)NCCN1CCCC1)OCCCC/C=C\CC (centres unmarked) [Compound 7-25, 1-(3-((4,4-bis(((Z)-oct-5-en-1-yl)oxy)butanoyl)oxy)-2-(((4-(((2-(pyrrolidin-1-yl)ethyl)carbamoyl)oxy)heptanoyl)oxy)methyl)propyl) 7-(3-pentyloctyl) heptanedioate]",97.8,78.75,0.11,0.9
"CC/C=C\CCCCOC(CCC(=O)OCC(COC(=O)CCCCCCOC(=O)C(CCCC)CCCCCC)COC(=O)CCC(CCCCC)OC(=O)NCCN1CCCC1)OCCCC/C=C\CC (centres unmarked) [Compound 7-23, 3-((4,4-bis(((Z)-oct-5-en-1-yl)oxy)butanoyl)oxy)-2-(((7-((2-butyloctanoyl)oxy)heptanoyl)oxy)methyl)propyl 4-(((2-(pyrrolidin-1-yl)ethyl)carbamoyl)oxy)nonanoate]",98.7,57.90,0.12,1.0
"CC/C=C\CCCCOC(CCC(=O)OCC(COC(=O)CCCCCCOC(=O)C(CCCC)CCCCCC)COC(=O)CCC(CCCC)OC(=O)NCCN1CCCC1)OCCCC/C=C\CC (centres unmarked) [Compound 7-22, 3-((4,4-bis(((Z)-oct-5-en-1-yl)oxy)butanoyl)oxy)-2-(((7-((2-butyloctanoyl)oxy)heptanoyl)oxy)methyl)propyl 4-(((2-(pyrrolidin-1-yl)ethyl)carbamoyl)oxy)octanoate]",97.3,65.85,0.06,5.6
"CC/C=C\CCCCOC(CCC(=O)OCC(COC(=O)CCC(CCCCC)OC(=O)NCCN1CCCC1)COC(=O)CCC(OCCCC/C=C\CC)OCCCC/C=C\CC)OCCCC/C=C\CC (centres unmarked) [Compound 7-37, 2-(((4-(((2-(pyrrolidin-1-yl)ethyl)carbamoyl)oxy)nonanoyl)oxy)methyl)propane-1,3-diyl bis(4,4-bis(((Z)-oct-5-en-1-yl)oxy)butanoate)]",94.7,66.20,0.12,12.0
"CC/C=C\CCCCOC(CCC(=O)OCC(COC(=O)CCCCC(=O)OCCC(CCCCCC)CCCCCC)COC(=O)CCC(CCCCCC)OC(=O)NCCN1CCCC1)OCCCC/C=C\CC (centres unmarked) [Compound 7-16, 3-((4,4-bis(((Z)-oct-5-en-1-yl)oxy)butanoyl)oxy)-2-(((4-(((2-(pyrrolidin-1-yl)ethyl)carbamoyl)oxy)decanoyl)oxy)methyl)propyl (3-hexylnonyl) adipate]",98.0,52.55,0.05,0.7
"CC/C=C\CCCCOC(CCC(=O)OCC(COC(=O)CCCCCC(=O)OCC(CCCC)CCCCCC)COC(=O)CCC(CCCCCC)OC(=O)NCCN1CCCC1)OCCCC/C=C\CC (centres unmarked) [Compound 7-32, 1-(3-((4,4-bis(((Z)-oct-5-en-1-yl)oxy)butanoyl)oxy)-2-(((4-(((2-(pyrrolidin-1-yl)ethyl)carbamoyl)oxy)decanoyl)oxy)methyl)propyl) 7-(2-butyloctyl) heptanedioate]",96.1,53.30,0.10,0.6
